Assay results published in patent publication US20110009343A1, “MODULATORS OF AMYLOID AGGREGATION” (Praecis Pharmaceuticals, Inc., priority 1995, published 2011).
Peptide text beside a SMILES is read from it. * marks the point of attachment. Cholyl = C[C@H](CCC(=O)*)[C@H]1CC[C@H]2[C@@H]3[C@H](O)C[C@@H]4C[C@H](O)CC[C@]4(C)[C@H]3C[C@H](O)[C@]12C

Molecular target: T1, Aβ1-40 (Homo sapiens, UniProt P05067)
T1 construct: (β-AP1-40) was obtained commercially from Bachem (Torrance, Calif.); purchased Bachem (Torrance, Calif.)
Test: Nucleation assay (turbidity, A405 nm);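 also: synthetic Aβ monomer polymerization followed by turbidity in 96-well plates with continuous shaking, read every 15 minutes over 5 hours, compared against wells lacking test compound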
Type: biochemical
Settings: for inhibition at 100 mol %: 100 mole % inhibitor

[1] = Table V, 100 mole % inhibitor relative to Aβ1-40
[2] = Table V, read-out: % Inucl'n (percent reduction in maximum observed turbidity)

T1 sequence (P05067 672-711): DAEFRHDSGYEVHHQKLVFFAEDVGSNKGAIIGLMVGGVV
Description: The nucleation assay is employed to determine the ability of test compounds to alter (e.g. inhibit) the early events in formation of β-AP fibers from monomeric β-AP. […] The time delay before polymerization of β-AP monomer can be quantified as well as the extent of formation of insoluble fiber by light scattering (turbidity). Polymerization reaches equilibrium when the maximum turbidity reaches a plateau. The turbidity of a solution of natural β-AP in the absence or presence of various concentrations of a β-amyloid modulator compound is determined by measuring the apparent absorbance of the solution at 405 nm (A405 nm) over time. The threshold of sensitivity for the measurement of turbidity is in the range of 15-20 μM β-AP. […] This assay can be performed using stirring or shaking to accelerate polymerization, thereby increasing the speed of the assay. Moreover the assay can be adapted to a 96-well plate format to screen multiple compounds.
HFIP-solubilized peptide is sonicated in a waterbath sonicator for 5 mM at highest setting, then evaporated to dryness under a stream of argon. The peptide film is resuspended in anhydrous dimethylsulfoxide (DMSO) at a concentration of 6.9 mg/ml (25× concentration), sonicated for 5 mM as before, then filtered through a 0.2 micron nylon syringe filter (VWR cat. No. 28196-050). Test compounds are dissolved in DMSO at a 100× concentration. […] Ten microliters of the mixture is then added to the bottom of a well of a Corning Costar ultra low binding 96-well plate (Corning Costar, Cambridge Mass.; cat. No. 2500). Ninety microliters of water is added to the well, the plate is shaken on a rotary shaken at a constant speed at room temperature for 30 seconds, an additional 100 μl of 2×PTL buffer (20 mM NaH2PO4, 300 mM NaCl, pH 7.4) is added to the well, the plate is reshaken for 30 seconds and a baseline (t=0) turbidity reading is taken by measuring the apparent absorbance at 405 nm using a Bio-Rad Model 450 Microplate Reader. The plate is then returned to the shaker and shaken continuously for 5 hours. Turbidity readings are taken at 15 minute intervals.
β-amyloid aggregation in the absence of any modulators results in enhanced turbidity of the natural β-AP solution (i.e., an increase in the apparent absorbance at 405 nm over time).
Accordingly a fold increase in lag time of 1.0 indicates no change in lag time, whereas numbers >1.0 indicate an increase in lag time. The “% inhibition of plateau”, which is a measure of the ability of the compound to decrease the total amount of aggregation, refers to the reduction of the final turbidity in the presence of the test compound expressed as a percent of the control without the test compound.

CC(C)C[C@H](NC(=O)[C@H](CCCCN)NC(=O)[C@H](CCC(N)=O)NC(=O)[C@H](Cc1c[nH]cn1)NC(=O)[C@H](Cc1c[nH]cn1)NC(=O)[C@@H](NC(=O)[C@H](CCC(=O)O)NC(=O)[C@H](Cc1ccc(O)cc1)NC(=O)CNC(=O)[C@H](CO)NC(=O)[C@H](CC(=O)O)NC(=O)[C@H](Cc1c[nH]cn1)NC(=O)CC[C@@H](C)[C@H]1CC[C@H]2[C@@H]3[C@H](O)C[C@@H]4C[C@H](O)CC[C@]4(C)[C@H]3C[C@H](O)[C@]12C)C(C)C)C(N)=O [PPI-325] (Cholyl-HDSGYEVHHQKL-NH2)
Fold Increase in Lag Time (Table III, 33 mole %): 1.8 fold

CC(C)[C@H](NC(=O)[C@H](CCC(=O)O)NC(=O)[C@H](Cc1ccc(O)cc1)NC(=O)CNC(=O)[C@H](CO)NC(=O)[C@H](CC(=O)O)NC(=O)[C@H](Cc1c[nH]cn1)NC(=O)CC[C@@H](C)[C@H]1CC[C@H]2[C@@H]3[C@H](O)C[C@@H]4C[C@H](O)CC[C@]4(C)[C@H]3C[C@H](O)[C@]12C)C(=O)N[C@@H](Cc1c[nH]cn1)C(=O)N[C@@H](Cc1c[nH]cn1)C(N)=O [PPI-331] (Cholyl-HDSGYEVHH-NH2)
Fold Increase in Lag Time (Table III, 33 mole %): 1.0 fold

C[C@H](CCC(=O)N[C@@H](Cc1c[nH]cn1)C(=O)N[C@@H](CC(=O)O)C(=O)N[C@@H](CO)C(=O)NCC(=O)N[C@@H](Cc1ccc(O)cc1)C(N)=O)[C@H]1CC[C@H]2[C@@H]3[C@H](O)C[C@@H]4C[C@H](O)CC[C@]4(C)[C@H]3C[C@H](O)[C@]12C [PPI-339] (Cholyl-HDSGY-NH2)
Fold Increase in Lag Time (Table III, 33 mole %): 1.1 fold
ΔLag (ratio of lag time with test compound to lag time of control) [1]: 1.1
inhibition at 100 mol % [2]: -18%

CC(C)C[C@H](NC(=O)[C@H](CCCCN)NC(=O)[C@H](CCC(N)=O)NC(=O)[C@H](Cc1c[nH]cn1)NC(=O)[C@H](Cc1c[nH]cn1)NC(=O)[C@@H](NC(=O)[C@H](CCC(=O)O)NC(=O)[C@H](Cc1ccc(O)cc1)NC(=O)CNC(=O)[C@H](CO)NC(=O)[C@H](CC(=O)O)NC(=O)CC[C@@H](C)[C@H]1CC[C@H]2[C@@H]3[C@H](O)C[C@@H]4C[C@H](O)CC[C@]4(C)[C@H]3C[C@H](O)[C@]12C)C(C)C)C(=O)N[C@H](C(=O)N[C@@H](Cc1ccccc1)C(=O)N[C@@H](Cc1ccccc1)C(=O)O)C(C)C [PPI-341, cholyl-Aβ7-20] (Cholyl-DSGYEVHHQKLVFF-OH)
Fold Increase in Lag Time (Table III, 33 mole %): 2 fold
Fold Increase in Lag Time (Table III, 100 mole %): >4.5 fold

CC(C)C[C@H](NC(=O)[C@H](CCCCN)NC(=O)[C@H](CCC(N)=O)NC(=O)[C@H](Cc1c[nH]cn1)NC(=O)[C@H](Cc1c[nH]cn1)NC(=O)CC[C@@H](C)[C@H]1CC[C@H]2[C@@H]3[C@H](O)C[C@@H]4C[C@H](O)CC[C@]4(C)[C@H]3C[C@H](O)[C@]12C)C(=O)N[C@H](C(=O)N[C@@H](Cc1ccccc1)C(=O)N[C@@H](Cc1ccccc1)C(=O)O)C(C)C [PPI-347, cholyl-Aβ13-20] (Cholyl-HHQKLVFF-OH)
Fold Increase in Lag Time (Table III, 33 mole %): 2.6 fold
Fold Increase in Lag Time (Table IV, 10 mole %): 2.2 fold

CC(C)C[C@H](NC(=O)[C@H](CCCCN)NC(=O)[C@H](CCC(N)=O)NC(=O)[C@H](Cc1c[nH]cn1)NC(=O)CC[C@@H](C)[C@H]1CC[C@H]2[C@@H]3[C@H](O)C[C@@H]4C[C@H](O)CC[C@]4(C)[C@H]3C[C@H](O)[C@]12C)C(=O)N[C@H](C(=O)N[C@@H](Cc1ccccc1)C(=O)N[C@@H](Cc1ccccc1)C(=O)O)C(C)C [PPI-348, cholyl-Aβ14-20] (Cholyl-HQKLVFF-OH)
Fold Increase in Lag Time (Table III, 33 mole %): 2.0 fold
inhibition at 33 mol % (Table V, 33 mol % inhibitor, read-out: % Inucl'n (percent reduction in maximum observed turbidity)): 70%
ΔLag (ratio of lag time with test compound to lag time of control) (Table V, 33 mole % inhibitor): 2.0

C[C@H](NC(=O)[C@H](C)NC(=O)[C@H](C)NC(=O)[C@H](C)NC(=O)[C@H](C)NC(=O)CC[C@@H](C)[C@H]1CC[C@H]2[C@@H]3[C@H](O)C[C@@H]4C[C@H](O)CC[C@]4(C)[C@H]3C[C@H](O)[C@]12C)C(=O)O [PPI-365, Cholyl-penta-alanine]
Fold Increase in Lag Time (Table IV, 100 mole %): ~1 fold
ΔLag (ratio of lag time with test compound to lag time of control) [1]: 0.8
inhibition at 100 mol % [2]: -7%
